The values that follow come from BindingDB's records for PubMed 29032032 (Quaid-I-Azam University, 2017).

SMILES strings stand for the structures.

In one assay the target is Maltase-glucoamylase (Homo sapiens, UniProt O43451). The assay can be described thus: Inhibition of alpha-glucosidase (unknown origin).
The target in assay [1] is Alpha-glucosidase (Saccharomyces cerevisiae). The assay can be described thus: Inhibition of Saccharomyces cerevisiae alpha-glucosidase using pNPG as substrate incubated for 30 mins by microplate reader analysis.

Maltase-glucoamylase, sequence (O43451 whole entry): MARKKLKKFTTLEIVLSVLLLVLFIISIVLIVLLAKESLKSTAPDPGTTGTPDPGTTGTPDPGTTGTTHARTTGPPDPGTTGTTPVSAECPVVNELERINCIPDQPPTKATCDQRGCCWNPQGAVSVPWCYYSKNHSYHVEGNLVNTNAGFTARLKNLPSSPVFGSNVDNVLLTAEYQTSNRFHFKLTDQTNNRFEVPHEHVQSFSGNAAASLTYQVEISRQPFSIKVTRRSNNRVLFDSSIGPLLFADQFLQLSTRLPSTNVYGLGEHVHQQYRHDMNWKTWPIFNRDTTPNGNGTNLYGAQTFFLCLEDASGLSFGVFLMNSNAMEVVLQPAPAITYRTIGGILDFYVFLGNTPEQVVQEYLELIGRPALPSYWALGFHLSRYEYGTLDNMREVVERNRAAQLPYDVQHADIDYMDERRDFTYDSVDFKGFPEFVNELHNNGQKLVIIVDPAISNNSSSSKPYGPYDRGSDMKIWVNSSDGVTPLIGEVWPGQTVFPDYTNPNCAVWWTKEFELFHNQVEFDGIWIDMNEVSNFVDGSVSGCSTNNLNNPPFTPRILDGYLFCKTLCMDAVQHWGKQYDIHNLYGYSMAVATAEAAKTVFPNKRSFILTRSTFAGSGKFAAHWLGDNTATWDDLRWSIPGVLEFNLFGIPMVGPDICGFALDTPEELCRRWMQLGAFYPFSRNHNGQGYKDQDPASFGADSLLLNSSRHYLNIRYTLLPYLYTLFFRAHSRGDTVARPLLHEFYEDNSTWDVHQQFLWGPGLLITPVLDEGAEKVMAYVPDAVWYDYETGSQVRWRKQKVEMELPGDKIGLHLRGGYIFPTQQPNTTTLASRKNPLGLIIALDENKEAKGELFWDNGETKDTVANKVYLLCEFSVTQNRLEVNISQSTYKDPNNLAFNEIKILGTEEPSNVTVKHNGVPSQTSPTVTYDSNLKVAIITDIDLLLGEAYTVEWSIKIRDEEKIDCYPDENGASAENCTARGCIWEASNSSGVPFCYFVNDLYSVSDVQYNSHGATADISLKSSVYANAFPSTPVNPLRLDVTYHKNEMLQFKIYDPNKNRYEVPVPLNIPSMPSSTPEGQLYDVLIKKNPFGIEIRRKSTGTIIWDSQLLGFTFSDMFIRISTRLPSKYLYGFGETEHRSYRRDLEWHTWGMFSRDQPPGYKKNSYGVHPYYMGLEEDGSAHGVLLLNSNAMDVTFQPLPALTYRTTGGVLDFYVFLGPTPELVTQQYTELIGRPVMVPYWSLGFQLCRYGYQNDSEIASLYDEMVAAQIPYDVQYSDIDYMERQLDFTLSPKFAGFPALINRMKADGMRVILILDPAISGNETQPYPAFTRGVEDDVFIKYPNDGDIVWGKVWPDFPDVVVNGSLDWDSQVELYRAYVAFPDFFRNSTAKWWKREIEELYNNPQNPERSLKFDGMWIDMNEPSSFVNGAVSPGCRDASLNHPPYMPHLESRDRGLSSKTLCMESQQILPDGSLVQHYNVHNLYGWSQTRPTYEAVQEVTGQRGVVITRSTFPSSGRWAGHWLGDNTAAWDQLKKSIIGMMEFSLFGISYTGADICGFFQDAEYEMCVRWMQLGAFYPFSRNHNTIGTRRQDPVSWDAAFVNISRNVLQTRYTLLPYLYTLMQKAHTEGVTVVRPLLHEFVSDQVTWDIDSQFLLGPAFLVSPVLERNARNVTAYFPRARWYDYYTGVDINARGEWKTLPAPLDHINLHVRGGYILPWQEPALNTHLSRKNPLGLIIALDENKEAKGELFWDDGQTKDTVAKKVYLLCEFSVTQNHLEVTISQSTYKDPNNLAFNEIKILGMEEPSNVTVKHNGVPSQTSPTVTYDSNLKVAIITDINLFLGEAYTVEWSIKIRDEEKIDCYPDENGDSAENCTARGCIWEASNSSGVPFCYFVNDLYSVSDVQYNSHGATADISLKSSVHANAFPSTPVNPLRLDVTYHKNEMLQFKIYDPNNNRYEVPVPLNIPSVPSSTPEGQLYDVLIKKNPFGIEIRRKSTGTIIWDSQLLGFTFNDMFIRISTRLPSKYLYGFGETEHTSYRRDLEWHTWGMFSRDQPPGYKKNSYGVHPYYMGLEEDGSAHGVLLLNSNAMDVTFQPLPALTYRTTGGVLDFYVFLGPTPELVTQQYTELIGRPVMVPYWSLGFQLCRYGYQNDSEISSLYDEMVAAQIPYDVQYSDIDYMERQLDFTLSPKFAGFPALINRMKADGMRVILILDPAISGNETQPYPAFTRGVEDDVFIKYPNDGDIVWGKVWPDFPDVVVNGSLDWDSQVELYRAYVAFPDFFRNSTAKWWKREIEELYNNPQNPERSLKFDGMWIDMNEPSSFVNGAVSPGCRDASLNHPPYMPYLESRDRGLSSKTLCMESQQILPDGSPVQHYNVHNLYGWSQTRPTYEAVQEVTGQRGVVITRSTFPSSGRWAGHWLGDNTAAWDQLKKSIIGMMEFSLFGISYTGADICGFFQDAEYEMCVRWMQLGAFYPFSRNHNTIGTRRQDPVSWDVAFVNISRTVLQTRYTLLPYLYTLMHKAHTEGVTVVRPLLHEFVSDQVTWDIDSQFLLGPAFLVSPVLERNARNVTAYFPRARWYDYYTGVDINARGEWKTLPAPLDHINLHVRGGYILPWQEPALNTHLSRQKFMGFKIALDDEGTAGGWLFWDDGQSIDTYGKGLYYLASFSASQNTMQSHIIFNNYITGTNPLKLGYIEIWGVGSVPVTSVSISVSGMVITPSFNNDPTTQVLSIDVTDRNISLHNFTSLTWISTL

In general, IC50 refers to the point on the concentration scale where inhibition reaches its midpoint. A higher IC50 goes with weaker potency in that assay. For the compound `COc1ccc(C(c2c(O)c3cc(Cl)ccc3oc2=O)c2c(O)c3cc(Cl)ccc3oc2=O)cc1OC`, the 50% inhibitory concentration (IC50) against Maltase-glucoamylase stood at 91.4 µM.
For the compound `COc1cc2cc(Oc3ccc4ccc(=O)oc4c3)c(=O)oc2cc1O` [Daphnoretin], in assay [1], the IC50 turned out to be 0.086 µM.
On the same count and under the same terms, as for `O=c1ccc2ccc(Oc3cc4cc(O)c(O)cc4oc3=O)cc2o1` [6,7-dihydroxy-3,7'-dicoumaryl ether], the figure is 0.05 µM.
On to `O=c1oc2ccc(Cl)cc2c(O)c1C(c1cccc([N+](=O)[O-])c1)c1c(O)c2cc(Cl)ccc2oc1=O`, for which the IC50 at Maltase-glucoamylase was 27.1 µM.
`COc1cc(C(c2c(O)c3cc(C)ccc3oc2=O)c2c(O)c3cc(C)ccc3oc2=O)cc(OC)c1OC` returned an IC50 at Maltase-glucoamylase of 386 µM.
`CCOc1cc(C(c2c(O)c3cc(C)ccc3oc2=O)c2c(O)c3cc(C)ccc3oc2=O)ccc1O` yielded an IC50 at Maltase-glucoamylase of 221 µM.
Still for that read-out and setting: as for `COc1ccc(C(c2c(O)c3cc(Cl)ccc3oc2=O)c2c(O)c3cc(Cl)ccc3oc2=O)cc1O`, the figure is 113 µM; as for `O=c1oc2ccc(Cl)cc2c(O)c1C(c1ccc(Cl)cc1Cl)c1c(O)c2cc(Cl)ccc2oc1=O`, 16.5 µM.
In turn, `O=c1oc2ccc(Cl)cc2c(O)c1C(c1cccc(O)c1)c1c(O)c2cc(Cl)ccc2oc1=O` yielded an IC50 against Maltase-glucoamylase of 84.1 µM. This IC50 is about 5.1-fold higher than that of the compound before.
In turn, `CCOc1cc(C(c2c(O)c3cc(Cl)ccc3oc2=O)c2c(O)c3cc(Cl)ccc3oc2=O)ccc1O` gave a 50% inhibitory concentration (IC50) against Maltase-glucoamylase of 57.1 µM.
The same measure, in the same setting: as for `COc1cc(C(c2c(O)c3cc(Cl)ccc3oc2=O)c2c(O)c3cc(Cl)ccc3oc2=O)ccc1O`, the figure is 83.6 µM.
As for `COc1cc2c(O)c(Oc3cc(O[C@@H]4O[C@H](CO)[C@@H](O)[C@H](O)[C@H]4O[C@@H]4O[C@H](CO)[C@@H](O)[C@H](O)[C@H]4O)c4ccc(=O)oc4c3)c(=O)oc2cc1O`, the midpoint of inhibition in assay [1], the IC50, lay at 0.231 µM.
As for `COc1ccc(C(c2c(O)c3cc(C)ccc3oc2=O)c2c(O)c3cc(C)ccc3oc2=O)cc1` [acs.jmedchem.1c00409_ST.500], it took 107 µM to reach half-maximal inhibition on Maltase-glucoamylase (IC50).
The same measure, in the same setting: as for `COc1cc(C(c2c(O)c3cc(Cl)ccc3oc2=O)c2c(O)c3cc(Cl)ccc3oc2=O)cc(OC)c1OC`, the figure is 128 µM.
